According to US20120149691A1, “Pyrrolo [1,2-b] Pyridazine Derivatives as Janus Kinase Inhibitors” (BioCryst Pharmaceuticals, Inc., priority 2009, published 2012):

**Q.** For CC1CCCCC1Nc1c(C(=O)O)cnn2cccc12 (stereo not shown) [Compound 18e, 4-(2-methylcyclohexylamino)pyrrolo[1,2-b]pyridazine-3-carboxylic acid], which melting point is on record?
**A.** Its melting point is 195.1 °C.

**Q.** With C[C@H]1CCCC[C@H]1Nc1c(C(N)=O)cnn2cccc12 [Compound 18g, 4-((1R,2S)-2-methylcyclohexylamino)pyrrolo[1,2-b]pyridazine-3-carboxamide] as the compound, how does the melting point read?
**A.** Its melting point is 158.6 °C.

**Q.** With C[C@@H]1CCCC[C@@H]1Nc1c(C(N)=O)cnn2cccc12 [Compound 18i, 4-((1S,2R)-2-methylcyclohexylamino)pyrrolo[1,2-b]pyridazine-3-carboxamide] as the compound, how does the melting point read?
**A.** The melting point was 154.7 °C.

**Q.** Which melting point does the source give for Cc1nc(C(CC(C)C)Nc2c(C#N)cnn3cccc23)sc1C (stereo not shown) [Compound 49b, 4-(1-(4,5-Dimethylthiazol-2-yl)-3-methylbutylamino)pyrrolo[1,2-b]pyridazine-3-carbonitrile] here?
**A.** Its melting point is 137.9 °C.

**Q.** With CC(C)(CNc1c(C#N)cnn2cccc12)N1CCOCC1 [Compound 49e, 4-(2-methyl-2-morpholinopropylamino)pyrrolo[1,2-b]pyridazine-3-carbonitrile] as the compound, how does the melting point read?
**A.** The melting point was 178.8 °C.

**Q.** With CN(C)C(CNc1c(C#N)cnn2cccc12)c1ccco1 (stereo not shown) [Compound 49h, 4-(2-(dimethylamino)-2-(furan-2-yl)ethylamino)pyrrolo[1,2-b]pyridazine-3-carbonitrile] as the compound, how does the melting point read?
**A.** Its melting point is 106.9 °C.

**Q.** With N#Cc1cnn2cccc2c1NC1(c2ccc(Cl)cc2Cl)CC1 [Compound 49k, 4-(1-(2,4-dichlorophenyl)cyclopropylamino)pyrrolo[1,2-b]pyridazine-3-carbonitrile] as the compound, how does the melting point read?
**A.** Its melting point is 207.7 °C.

**Q.** Which melting point does the source give for COc1ccccc1C(CNc1c(C#N)cnn2cccc12)N1CCOCC1 (stereo not shown) [Compound 50b, 4-(2-(2-methoxyphenyl)-2-morpholinoethylamino)pyrrolo[1,2-b]pyridazine-3-carbonitrile] here?
**A.** The melting point was 156.9 °C.

**Q.** Which melting point does the source give for NC(=O)c1cnn2cccc2c1NC1CCC(O)CC1 (stereo not shown) [Compound 51i, 4-(4-hydroxycyclohexylamino)pyrrolo[1,2-b]pyridazine-3-carboxamide] here?
**A.** The melting point was 192.2 °C.

**Q.** For N#Cc1cnn2cccc2c1NCC1CCCO1 (stereo not shown) [Compound 51k, 4-((tetrahydrofuran-2-yl)methylamino)pyrrolo[1,2-b]pyridazine-3-carbonitrile], which melting point is on record?
**A.** The melting point was 101.8 °C.

**Q.** For NC(=O)c1cnn2cccc2c1NCC1CCCO1 (stereo not shown) [Compound 51m, 4-((tetrahydrofuran-2-yl)methylamino)pyrrolo[1,2-b]pyridazine-3-carboxamide], which melting point is on record?
**A.** The melting point was 120 °C.

**Q.** Which melting point does the source give for N#Cc1cnn2cccc2c1NC1CCCC1 [Compound 52b, 4-(cyclopentylamino)pyrrolo[1,2-b]pyridazine-3-carbonitrile] here?
**A.** Its melting point is 102.9 °C.

**Q.** Which melting point does the source give for N#Cc1cnn2cccc2c1Nc1ccccc1 [Compound 52e, 4-(phenylamino)pyrrolo[1,2-b]pyridazine-3-carbonitrile] here?
**A.** Its melting point is 163.5 °C.

**Q.** Which melting point does the source give for NC(=O)c1cnn2cccc2c1Nc1ccccc1 [Compound 52f, 4-(phenylamino)pyrrolo[1,2-b]pyridazine-3-carboxamide] here?
**A.** The melting point was 247.2 °C.

**Q.** Which melting point does the source give for N#Cc1cnn2cccc2c1NC1CCCCCC1 [Compound 52h, 4-(cycloheptylamino)pyrrolo[1,2-b]pyridazine-3-carbonitrile] here?
**A.** Its melting point is 108 °C.

**Q.** For NC(=O)c1cnn2cccc2c1NC1CCCCCC1 [Compound 52i, 4-(cycloheptylamino)pyrrolo[1,2-b]pyridazine-3-carboxamide], which melting point is on record?
**A.** Its melting point is 279.2 °C.
